The values below come from US20260234403A1, “PHOTOACTIVE FLUORESCENT COMPOUNDS AND USE THEREOF FOR LABELING OF PROTEINS” (EIKON THERAPEUTICS, INC., priority 2023, published 2026).

The subject of this assay is Wild-type (WT) U2OS cells. Briefly: Reduction in nonspecific labeling of WT cells (number of tracks vs PA-JF549). The format is cell-based. Conditions: 100 nM, 1 hr, ratio with PA-JF549 in the numerator. The method, then: Using the methods described in Tables 4a and 4b above, labelling specificity of the compound of Examples 1-28 was measured and compared to PA-JF549. U2OS cells wild type or expressing ER-HaloTag fusion were incubated with PA-JF549 or Examples 1-28 for 1 hr. […] Labeling specificity, as measured by the fold reduction in nonspecific labeling of WT cells, was calculated by number of tracks measured in WT cells for Examples 1-28 compared to the number of tracks in WT cells for PA-JF549, expressed as the ratio with PA-JF549 in the numerator.

[1] abbreviates: Table 4b, Example 19 with 642 nm light.

On to `CN1CCN(C(=O)C2CN(c3ccc4c(c3)Oc3cc(N5CC(C(=O)N6CCN(C)CC6)C5)ccc3C43C(=[N+]=[N-])C(=O)c4ccc(C(=O)NCCOCCOCCCCCCCl)cc43)C2)CC1` [Example 11, N-(2-(2-((6-chlorohexyl)oxy)ethoxy)ethyl)-2-diazo-3′,6′-bis(3-(4-methylpiperazine-1-carbonyl)azetidin-1-yl)-3-oxo-2,3-dihydrospiro[indene-1,9′-xanthene]-6-carboxamide], for which the “Fold reduction in nonspecific labeling” value runs as follows: (Table 4a) 1-5; under setting [1], 1-5.
On to `CN(C)C(=O)C1CN(c2ccc3c(c2)[Si](C)(C)c2cc(N4CC(C(=O)N(C)C)C4)ccc2C32C(=[N+]=[N-])C(=O)c3ccc(C(=O)NCCOCCOCCCCCCCl)cc32)C1` [Example 19, 1,1′-(6′-((2-(2-((6-chlorohexyl)oxy)ethoxy)ethyl)carbamoyl)-2′-diazo-5,5-dimethyl-3′-oxo-2′,3′-dihydro-5H-spiro[dibenzo[b,e]siline-10,1′-indene]-3,7-diyl)bis(N,N-dimethylazetidine-3-carboxamide)], for which the “Fold reduction in nonspecific labeling” value under setting [1] is recorded as over 10.
Regarding `[N-]=[N+]=C1C(=O)c2ccc(OCCCOCCOCCCCCCCl)cc2C12c1ccc(N3CCC3)cc1Oc1cc(N3CCC3)ccc12` [Example 25, 3′,6′-di(azetidin-1-yl)-6-(3-(2-((6-chlorohexyl)oxy)ethoxy)propoxy)-2-diazospiro[indene-1,9′-xanthen]-3(2H)-one], under setting [1], the “Fold reduction in nonspecific labeling” value is under 1.
Turning to `COC(=O)[C@H]1CCN1c1ccc2c(c1)Oc1cc(N3CC[C@@H]3C(=O)OC)ccc1C21C(=[N+]=[N-])C(=O)c2ccc(C(=O)NCCOCCOCCCCCCCl)cc21` [Example 6, Dimethyl 1,1′-(6-((2-(2-((6-chlorohexyl)oxy)ethoxy)ethyl)carbamoyl)-2-diazo-3-oxo-2,3-dihydrospiro[indene-1,9′-xanthene]-3′,6′-diyl)(2R,2′R)-bis(azetidine-2-carboxylate)], the “Fold reduction in nonspecific labeling” value reads like this: (Table 4a) 1-5; under setting [1], 1-5.
`O=C1OC2(c3ccc(N4CCC4)cc3Oc3cc(N4CCC4)ccc32)c2cc(NCCOCCOCCCCCCCl)ccc21` [Example 21, 3′,6′-di(azetidin-1-yl)-6-((2-(2-((6-chlorohexyl)oxy)ethoxy)ethyl)amino)-3H-spiro[isobenzofuran-1,9′-xanthen]-3-one]: the “Fold reduction in nonspecific labeling” value under setting [1] is 5-10.
For the molecule “(E)-3′,6′-di(azetidin-1-yl)-6-(4-(2-((6-chlorohexyl)oxy)ethoxy)but-1-en-1-yl)-2-diazospiro[indene-1,9′-xanthen]-3(2H)-one and (Z)-3′,6′-di(azetidin-1-yl)-6-(4-(2-((6-chlorohexyl)oxy)ethoxy)but-1-en-1-yl)-2-diazospiro[indene-1,9′-xanthen]-3(2H)-one [Example 23]”, the “Fold reduction in nonspecific labeling” value under setting [1] is on record as over 10.
Same read-out and setting: then `[N-]=[N+]=C1C(=O)c2ccc(COCCOCCOCCCCCCCl)cc2C12c1ccc(N3CCC3)cc1Oc1cc(N3CCC3)ccc12` [Example 27, 3′,6′-di(azetidin-1-yl)-6-((2-(2-((6-chlorohexyl)oxy)ethoxy)ethoxy)methyl)-2-diazospiro[indene-1,9′-xanthen]-3(2H)-one], with under 1; and `[N-]=[N+]=C1C(=O)c2ccc(NC(=O)CCOCCOCCCCCCCl)cc2C12c1ccc(N3CCC3)cc1Oc1cc(N3CCC3)ccc12` [Example 22, 3-(2-((6-chlorohexyl)oxy)ethoxy)-N-(3′,6′-di(azetidin-1-yl)-2-diazo-3-oxo-2,3-dihydrospiro[indene-1,9′-xanthen]-6-yl)propanamide], with 5-10.
Consider `CN(C)C(=O)[C@@H]1CCN1c1ccc2c(c1)Oc1cc(N3CC[C@H]3C(=O)N(C)C)ccc1C21C(=[N+]=[N-])C(=O)c2ccc(C(=O)NCCOCCOCCCCCCCl)cc21` [Example 14, (2S,2′S)-1,1′-(6-((2-(2-((6-chlorohexyl)oxy)ethoxy)ethyl)carbamoyl)-2-diazo-3-oxo-2,3-dihydrospiro[indene-1,9′-xanthene]-3′,6′-diyl)bis(N,N-dimethylazetidine-2-carboxamide)], for which the “Fold reduction in nonspecific labeling” value is recorded as over 10 (Table 4a) and over 10 under setting [1].
With `[N-]=[N+]=C1C(=O)c2ccc(C(=O)NCCOCCOCCCCCCCl)cc2C12c1ccc(N3CC(O)C3)cc1Oc1cc(N3CC(O)C3)ccc12` [Example 7, N-(2-(2-((6-chlorohexyl)oxy)ethoxy)ethyl)-2-diazo-3′,6′-bis(3-hydroxyazetidin-1-yl)-3-oxo-2,3-dihydrospiro[indene-1,9′-xanthene]-6-carboxamide], the “Fold reduction in nonspecific labeling” value is, setting by setting: (Table 4a) over 10; under setting [1], over 10.
With `CN1CC2CC(C1)N2c1ccc2c(c1)Oc1cc(N3C4CC3CN(C)C4)ccc1C21C(=[N+]=[N-])C(=O)c2ccc(C(=O)NCCOCCOCCCCCCCl)cc21` (stereo not drawn) [Example 18, N-(2-(2-((6-chlorohexyl)oxy)ethoxy)ethyl)-2-diazo-3′,6′-bis(3-methyl-3,6-diazabicyclo[3.1.1]heptan-6-yl)-3-oxo-2,3-dihydrospiro[indene-1,9′-xanthene]-6-carboxamide], the “Fold reduction in nonspecific labeling” value is, setting by setting: (Table 4a) over 10; under setting [1], over 10.
As to `[N-]=[N+]=C1C(=O)c2ccc(C(=O)NCCOCCOCCCCCCCl)cc2C12c1ccc(N3CC(C(=O)N4CCOCC4)C3)cc1Oc1cc(N3CC(C(=O)N4CCOCC4)C3)ccc12` [Example 9, N-(2-(2-((6-chlorohexyl)oxy)ethoxy)ethyl)-2-diazo-3′,6′-bis(3-(morpholine-4-carbonyl)azetidin-1-yl)-3-oxo-2,3-dihydrospiro[indene-1,9′-xanthene]-6-carboxamide], the “Fold reduction in nonspecific labeling” value was over 10 (Table 4a) and over 10 under setting [1].
For `CN(C)C(=O)C1CN(c2ccc3c(c2)Oc2cc(N4CC(C(=O)N(C)C)C4)ccc2C32C(=[N+]=[N-])C(=O)c3ccc(C(=O)NCc4ccc(COc5nc(N)nc6nc[nH]c56)cc4)cc32)C1` [Example 5, 1,1′-(6-((4-(((2-amino-7H-purin-6-yl)oxy)methyl)benzyl)carbamoyl)-2-diazo-3-oxo-2,3-dihydrospiro[indene-1,9′-xanthene]-3′,6′-diyl)bis(N,N-dimethylazetidine-3-carboxamide)], the “Fold reduction in nonspecific labeling” value was over 10 (Table 4a) and over 10 under setting [1].
Turning to `[N-]=[N+]=C1C(=O)c2ccc(C(=O)NCCOCCOCCCCCCCl)cc2C12c1ccc(N3CC(C(=O)N4CCCC4)C3)cc1Oc1cc(N3CC(C(=O)N4CCCC4)C3)ccc12` [Example 10, N-(2-(2-((6-chlorohexyl)oxy)ethoxy)ethyl)-2-diazo-3-oxo-3′,6′-bis(3-(pyrrolidine-1-carbonyl)azetidin-1-yl)-2,3-dihydrospiro[indene-1,9′-xanthene]-6-carboxamide], the “Fold reduction in nonspecific labeling” value is, setting by setting: (Table 4a) 5-10; under setting [1], 5-10.
In the case of `CNC(=O)C1CN(c2ccc3c(c2)Oc2cc(N4CC(C(=O)NC)C4)ccc2C32C(=[N+]=[N-])C(=O)c3ccc(C(=O)NCCOCCOCCCCCCCl)cc32)C1` [Example 12, 1,1′-(6-((2-(2-((6-chlorohexyl)oxy)ethoxy)ethyl)carbamoyl)-2-diazo-3-oxo-2,3-dihydrospiro[indene-1,9′-xanthene]-3′,6′-diyl)bis(N-methylazetidine-3-carboxamide)], the “Fold reduction in nonspecific labeling” value is over 10 (Table 4a) and over 10 under setting [1].
`[N-]=[N+]=C1C(=O)c2ccc(C(=O)NCCOCCOCCCCCCCl)cc2C12c1ccc(N3CC[C@@H]3CO)cc1Oc1cc(N3CC[C@@H]3CO)ccc12` [Example 15, N-(2-(2-((6-chlorohexyl)oxy)ethoxy)ethyl)-2-diazo-3′,6′-bis((R)-2-(hydroxymethyl)azetidin-1-yl)-3-oxo-2,3-dihydrospiro[indene-1,9′-xanthene]-6-carboxamide]: the “Fold reduction in nonspecific labeling” value is given as 5-10 (Table 4a) and 5-10 under setting [1].
For the molecule `CN(CCOCCOCCCCCCCl)C(=O)c1ccc2c(c1)C1(C(=[N+]=[N-])C2=O)c2ccc(N3CCC3)cc2Oc2cc(N3CCC3)ccc21` [Example 8, 3′,6′-di(azetidin-1-yl)-N-(2-(2-((6-chlorohexyl)oxy)ethoxy)ethyl)-2-diazo-N-methyl-3-oxo-2,3-dihydrospiro[indene-1,9′-xanthene]-6-carboxamide], the “Fold reduction in nonspecific labeling” value is given as 5-10 (Table 4a) and 5-10 under setting [1].
Regarding `[N-]=[N+]=C1C(=O)c2ccc(C(=O)NCCOCCOCCCCCCCl)cc2C12c1ccc(N3C4COCC3C4)cc1Oc1cc(N3C4COCC3C4)ccc12` (stereo not drawn) [Example 17, 3′,6′-di(3-oxa-6-azabicyclo[3.1.1]heptan-6-yl)-N-(2-(2-((6-chlorohexyl)oxy)ethoxy)ethyl)-2-diazo-3-oxo-2,3-dihydrospiro[indene-1,9′-xanthene]-6-carboxamide], the “Fold reduction in nonspecific labeling” value (Table 4a) was 1-5 and the “Fold reduction in nonspecific labeling” value under setting [1] was 1-5.
On to `CN(C)C1CN(c2ccc3c(c2)Oc2cc(N4CC(N(C)C)C4)ccc2C32C(=[N+]=[N-])C(=O)c3ccc(C(=O)NCCOCCOCCCCCCCl)cc32)C1` [Example 13, N-(2-(2-((6-chlorohexyl)oxy)ethoxy)ethyl)-2-diazo-3′,6′-bis(3-(dimethylamino)azetidin-1-yl)-3-oxo-2,3-dihydrospiro[indene-1,9′-xanthene]-6-carboxamide], for which the “Fold reduction in nonspecific labeling” value (Table 4a) was 5-10 and the “Fold reduction in nonspecific labeling” value under setting [1] was 5-10.
As for `CN(CCOCCOCCCCCCCl)Cc1ccc2c(c1)C1(C(=[N+]=[N-])C2=O)c2ccc(N3CCC3)cc2Oc2cc(N3CCC3)ccc21` [Example 26, 3′,6′-di(azetidin-1-yl)-6-(((2-(2-((6-chlorohexyl)oxy)ethoxy)ethyl)(methyl)amino)methyl)-2-diazospiro[indene-1,9′-xanthen]-3(2H)-one], the “Fold reduction in nonspecific labeling” value under setting [1] is reported as under 1.
